# Entries after “also recorded” stand apart in the source; their conditions may differ.
# Key:
# [1] = system: BAC-induced inflammatory gene expression signatures in sputum; experiment: Bronchial allergen challenge (BAC) with HDM in patients with mild allergic asthma: gene expression signatures (mRNA) in induced sputum; type: in vivo, human; conditions: for eosinophil gene signature scores: FIG. 14, post bronchial allergen challenge, across treatment arms; for allergen-induced eosinophilic signature and broader type 2 inflammatory signature, including CCL26, CCL17, and SIGLEC8: monotherapy, REGN3500 IV 10 mg/kg single dose, dupilumab SC 600 mg day 1, 300 mg day 15, sputum after BAC
# Experimental: Bronchial allergen challenge involves patient inhalation of allergen that results in a biphasic airway response, which is characterized by an early (30 minutes to 2 hours post-allergen challenge) and a late (approximately 3 to 8 hours post-allergen challenge) decline in forced expiratory volume over 1 second (FEV1).
# Enrolled patients undergo BAC during the screening period, and at 4 and 8 weeks after administration of the first doses of study drug(s). The effects of the study drugs on BAC-induced lung inflammation are assessed via measurements of sputum molecular signatures (mRNAs and proteins). The sputum molecular signatures are assessed before BAC (baseline) and after BAC (post-BAC) at screening and at weeks 4 and 8 after treatment initiation (FIG. 1). The BAC-induced difference in the sputum signatures before and after BAC are evaluated at screening (screening change) and at weeks 4 and 8 post-treatment (week 4 change and week 8 change) will be observed. Since both REGN3500 and dupilumab display long half-lives, BAC change is evaluated at both week 4 and week 8 in the current study, to monitor the durability of the potential impact of study drug treatment on airway inflammation. The effect of study drug treatment on induced sputum gene signatures is evaluated by the difference between the BAC-induced screening change and the BAC-induced week 4 change (screening to week 4 change) and by the difference between the BAC-induced screening change and the BAC-induced week 8 change (screening to week 8 change).
# Part 1 of this study is a randomized, double-blind, placebo-controlled, double-dummy parallel group study in mild persistent allergic asthmatic patients to assess the effect of REGN3500, dupilumab, REGN3500 plus dupilumab combination, or placebo on lung inflammation (as measured by sputum cytokine mRNAs) and measurements of the late phase inflammatory airway response to a BAC using HDM. Patients are randomized to one of the following treatment groups: REGN3500 (IV single dose); dupilumab (SC 2 doses, Q2W); combination REGN3500 (IV single dose) plus dupilumab (SC 2 doses, Q2W), and placebo (IV single dose and SC 2 doses, Q2W).
# Because the treatment groups in this study include a first clinical dosing of REGN3500 plus dupilumab combination, Part 1 is performed in 2 phases to address any potential safety issues. The first 8 patients are randomized 1:1:1:1 to receive study drug. On day 1: patients in the REGN3500 group receive REGN3500 IV 10 mg/kg, followed by dupilumab-matching placebo SC, patients in the dupilumab group receive REGN3500-matching placebo IV followed by a loading dose of dupilumab SC 600 mg (2 injections of 300 mg), patients in the REGN3500 plus dupilumab combination will receive REGN3500 10 mg/kg IV, followed by dupilumab SC 600 mg (2 injections of 300 mg), and patients in the placebo group will receive REGN3500-matching placebo IV, followed by 2 injections of dupilumab-matching placebo SC.
# On day 15 (week 2), patients assigned to the dupilumab group or the REGN3500 plus dupilumab combination group receive dupilumab SC 300 mg and all other patients receive dupilumab-matching placebo SC.
# All enrolled patients return to the clinic on day 24± 2 days and on day 52 ± 2 days to provide a baseline induced sputum sample. If an adequate sputum sample cannot be obtained, patients may return 72 hours later for a second attempt to produce baseline sputum. Pre-BAC sputum collection must occur at least 72 hours prior to the BAC. Seventy-two hours after the baseline induced sputum sample is collected, on day 29 ± 2 days and on day 57 ± 2 days, respectively, patients return to the clinic, and measurements of FEV1, and FeNO are performed prior to undergoing BAC with HDM. Sputum induction is performed 8 hours and 24 hours after inhaled BAC at both the days 29 ± 2 (week 4) and 57 ± 2 days (week 8) visits. […]
# [2] = system: HDM-driven lung inflammation; experiment: Chronic house dust mite (HDM) model of lung inflammation; type: in vivo; conditions: FIG. 5; for pro-inflammatory cytokines and chemokines (lung panel hIL-4, IL-5, IL-1b, TNFα, IFNg, GROa, MCP-1): chronic HDM model; for inflammation in chronic HDM model of lung inflammation (lung eosinophils, lung neutrophils): with and without anti-IL-33 treatment
# Text: Data is presented showing levels of lung eosinophils and lung neutrophils in the HDM model with and without anti-IL-33 treatment. A heat map of a lung cytokine gene panel is presented showing levels of hIL-4, IL-5, IL-1b, TNFα, IFNg, GROa, and MCP-1. Alveolar SMA testing data is presented as well.
# Treatment with REGN3 500 suppressed pro-inflammatory cytokines and chemokines. […] Other data presented includes a heat map of lung of cytokine panel showing levels of hIL-4, IL-5, IL-1b, TNFα, IFNg, GROa, and MCP-1. Alveolar SMA testing was also performed.
# [3] = system: blood eosinophils, neutrophils, circulating type 2 inflammatory mediators; experiment: BAC study: blood eosinophils, neutrophils and circulating type 2 inflammatory mediators; type: in vivo, human
# Experimental: Circulating Biomarkers: circulating biomarker samples are collected at time points according to Table 1 and Table 2. Biomarker measurements are performed in serum and plasma samples to determine effects on biomarkers of inflammatory diseases pathobiology or relevant physiological and pathogenic processes. The biomarkers studied are ones believed to be relevant to the pathophysiology of diseases, target engagement, mechanism of action of REGN3500 (and/or combination therapy) and possible toxicities. Biomarkers studied in the blood may include but need not be limited to, IL-33, soluble ST2, calcitonin, and MMP12.
Substance,"type 2 inflammatory cytokine and chemokine genes induced by BAC (IL-5, IL-13, Eot-3 (CCL26), TARC (CCL17), CCL1, FCER2, SIGLEC8) ([1]; FIG. 9, genes induced at 8 or 24 hours after allergen challenge, sputum)","eosinophil signature genes in sputum (ADARB1, ASB2, CLC, HDC, IL1RL1, PTPN7, SIGLEC8, SYNE1, VSTM1) ([1]; FIG. 11)","neutrophil signature genes ([1]; FIG. 11, sputum)","type 2 inflammatory signature genes in sputum (IL-4, IL-13, CCL26, CCL13, CCL17, CCL11, POSTN, IL-5, IL-9) ([1]; FIG. 12)",eosinophil gene signature scores [1],"decrease of type 2 signature scores ([1]; FIG. 15, compared with the fluticasone treatment arm)","allergic asthma signature genes (BC042385 ... RHOH) ([1]; FIG. 16, at 8 and/or 24 hours post BAC)","top allergic asthma signature genes induced by BAC at 24 hours (ASAP1-IT1 ... CCL17, CCL13, CCL26, SIGLEC8, IL13, IL5, PTGDS, RD3) ([1]; FIG. 17, screening vs treatment)","allergen-induced eosinophilic signature and broader type 2 inflammatory signature, including CCL26, CCL17, and SIGLEC8 [1]","pro-inflammatory cytokines and chemokines (lung panel hIL-4, IL-5, IL-1b, TNFα, IFNg, GROa, MCP-1) ([2]; listed as REGN3 500)","pro-inflammatory cytokines and chemokines (lung panel hIL-4, IL-5, IL-1b, TNFα, IFNg, GROa, MCP-1) ([2]; listed as anti-IL-33)","inflammation in chronic HDM model of lung inflammation (lung eosinophils, lung neutrophils) [2]","inflammation in chronic HDM model of lung inflammation (lung eosinophils, lung neutrophils) ([2]; listed as anti-IL-33)",neutrophils ([3]; in vivo),other circulating type 2 inflammatory mediators ([3]; in vivo),blood eosinophils ([3]; pharmacodynamic effect),genes suppressed by REGN3500 (many of them) ([1]; albeit with different dynamics)
"REGN3500: human anti-IL-33 antibody; HCVR/LCVR SEQ ID NOs: 2 and 10, heavy/light chain SEQ ID NOs: 18 and 20",suppressed,suppressed; also recorded: suppression,No anti-IL-33 (REGN3500) treatment-mediated effects were noted; also recorded: did not have an effect,suppressed; also recorded: suppression,able to reduce,lower decrease,affected,suppressed,significantly inhibited,suppressed,suppresses,reduced inflammation,reduces inflammation,No anti-IL-33 mediated reduction,no anti-IL-33 mediated reduction,reduction in blood eosinophils was a consistent pharmacodynamic effect,
"dupilumab: human anti-IL-4R antibody; HCVR/LCVR SEQ ID NOs: 27 and 28, heavy/light chain SEQ ID NOs: 29 and 30 [reference compound]",,,,,able to reduce,,,,significantly inhibited,,,,,,,,also suppressed

# Reference: patent publication US20230340101A1, “METHODS FOR TREATING OR PREVENTING ALLERGIC ASTHMA BY ADMINISTERING AN IL-33 ANTAGONIST AND/OR AN IL-4R ANTAGONIST” (SANOFI BIOTECHNOLOGY, priority 2019, published 2023)
